Assay results from patent publication US20200297617A1, “COMPOSITION FOR SKIN EXTERNAL USE FOR REDUCING WRINKLE AND COSMETIC PRODUCT” (Guangdong Bawei Biotechnology Co., Ltd., priority 2019, published 2020).

System: MMP-1
Test: Test 2: Analysis of inhibition of MMP-1 expression (MMP-1 ELISA, UVB-irradiated HS68 cells)
Type: cell-based, human
Conditions: UVB 30 mJ/cm2, compositions 1% mass concentration (RA 5 μM), 48 h, unirradiated control = 100, UV control = 194
Method: Test 2: Analysis of Inhibition of MMP-1 Expression
Human fibrocytes (HS68 cells, purchased from ATCC (Rockville, Md., USA)) were placed in a well plate at a density of 7.5×10^4 cells/well, and incubated in DMEM containing 10% FBS for 24 h, and then washed with PBS (phosphate buffer), followed by the addition of 0.5 ml of PBS therein, the resultant incubated cells were irradiated with ultraviolet rays (UVB30 mJ/cm2) to induce the expression of MMP-1. After the replacement with serum-free DMEM, the resultant product was treated with the compositions (having a mass concentration of 1%) of the examples and the contrast examples. The amount of supernatant obtained after 48 h incubation was determined using an MMP-1 ELISA kit. The human dermal fibroblasts HS68 were treated with ultraviolet rays to increase the expression of MMP-1, and then the resultant HS68 cells were treated with each sample to study whether the expression of MMP-1 was decreased. In the above, retinoic acid (RA, 5 μM, which is known to inhibit the expression of MMP-1) was used as a positive control group.

With `CC1=C(/C=C/C(C)=C/C=C/C(C)=C/C(=O)O)C(C)(C)CCC1` [RA, retinoic acid] the “Effect on inhibition of MMP-1 expression: proportions relative to the control group (%)” value was 118%.
